Source: patent publication US7326689B2, “Pseudomycins useful against plant diseases” (Eli Lilly and Company, priority 2000, dated 2008)

Legend:
Experiment in all cases: Antifungal growth assay in potato dextrose broth, 24-well
Assay type in all cases: cell-based
Parameters in all cases: key: NI, no inhibition; p (partial), at least 50% inhibited
[1] = system: Aphanomyces sp.; settings: 2x assays
Method: (§1) Fungi to be tested were propagated on potato dextrose agar (PDA) plates at room temperature. Stock solutions of pseudomycins and depsipeptide were suspended in dimethylsulfoxide (DMSO) (Sigma) at 5 mg/ml and stored at −20C. Serial dilutions of compounds were done the day of the experiment. All serial dilutions were made in DMSO. […] These are noted in the raw data section.
(§2) Assays were performed in 24-well cell culture clusters (Costar 3524), with 990 ul potato dextrose broth (PDB, Difco) and 10 ul of the compound to be tested in each well. Initial concentrations tested were 50-1.56 ug/ml (final concentration of pseudomycin). Actual concentrations of pseudomycins tested were 50, 25, 12.5, 6.25, 3.12 and 1.56 ug/ml. Each well was inoculated with the appropriate fungus. Unless noted, the fungal inoculum consisted of an ˜4 mm^2 piece of PDA with fungal mycelium. The exceptions were as follows. Ustilago maydis: this fungus grows much like a yeast on PDA, and cells were scraped from the PDA stock plate, resuspended in PDB and 10 ul inoculum added to each well. Monilinia sp.: this fungal mycelium grows as a very loose sheet on top of PDA and would not adhere to agar blocks. Fungal mycelium was ground with a metal rod in 500 ul PDB and 10 ul inoculum was added to each well. Mycosphaeella fijiensis, Septoria passerinii, Septoria triticii: these fungi all grow very slowly and the results were difficult to score if a small piece of agar with fungal mycelium on it was used as an inoculum. For these fungi, the mycelium was ground with a metal rod in 500 ul PDB and 10 ul inoculum was added to each well.
(§3) Wells were scored for fungal growth at two days and five days. Some slow growing fungi were scored at later days for growth because assessment was not possible at two or five days. Growth was scored by comparison to a control consisting of fungus inoculated into 990 ul potato dextrose broth and 10 ul of DMSO (Dimethylsulfoxide). An additional control consisting of fungal inoculum in PDB only was performed to ensure that the DMSO was not inhibitory to fungal growth.
(§4) For assays that were repeated, new stock solutions were made from a second shipment of pseudomycins. Note that pseudomycin B′ and depsipeptide stock solutions were remade from first shipment materials because these were not included in the second shipment. […] Actual concentrations of pseudomycins tested were 2, 1, 0.5, 0.25, 0.125 and 0.0625 ug/ml. A-PO4 and A-FB=pseudomycin A phosphate salt and free base respectively.
(§5) Table 2: Two day results—concentration indicated is lowest level of compound (ug /ml) that results is no growth. NI, no inhibition; p (partial), at least 50% inhibited; -, not determined. If number of assays was greater than one, number of assays performed on the fungus is noted in parentheses. For several slow-growing fungi, days elapsed before observation (if different than two) are noted.
(§6) Table 3: Five day results—concentration indicated is lowest level of compound (ug /ml) that results in no growth. NI, no inhibition; p (partial), at least 50% inhibited; -, not performed on the fungus is noted in parentheses. For several slow-growing fungi, days elapsed before observation (if different than five) are noted.

[2] = system: Botrytis alli; settings: 2x assays
Method: as §1, §2, §3, §4, §5, §6

[3] = system: Cochliobolus carbonum
Method: as §1, §2, §3, §4, §5, §6

[4] = system: Diplodia natalensis
Method: as §1, §2, §3, §4, §5, §6

[5] = system: Drechslera tritici-repentis
Method: as §1, §2, §3, §4, §5, §6

[6] = system: Fusarium avenaceum
Method: as §1, §2, §3, §4, §5, §6

[7] = system: Fusarium culmorum
Method: as §1, §2, §3, §4, §5, §6

[8] = system: Fusarium oxysporum cubense
Method: as §1, §2, §3, §4, §5, §6

[9] = system: Fusarium solani
Method: as §1, §2, §3, §4, §5, §6

[10] = system: Pestalotiopsis microspora NE-32
Method: as §1, §2, §3, §4, §5, §6

[11] = system: Phoma chrysamthecola; settings: five day results
Method: as §1, §2, §3, §4, §5, §6

[12] = system: Phytophthora cactorum
Method: as §1, §2, §3, §4, §5, §6

[13] = system: Phytophthora parasitica
Method: as §1, §2, §3, §4, §5, §6

[14] = system: Phytophthora ultimum
Method: as §1, §2, §3, §4, §5, §6

[15] = system: Sclerotinia sclerotiorum; settings: 2x assays
Method: as §1, §2, §3, §4, §5, §6

[16] = system: Stagonospora nodorum
Method: as §1, §2, §3, §4, §5, §6

[17] = system: Tapesia acuformis; settings: 2x assays
Method: as §1, §2, §3, §4, §5, §6

[18] = system: Tapesia yallundae; settings: 2x assays
Method: as §1, §2, §3, §4, §5, §6

[19] = system: Verticillium dahliae; settings: 2x assays
Method: as §1, §2, §3, §4, §5, §6

Pseudomycin C was tested, and the “lowest level of compound that results in no growth” value (from here on “lowest level … in no growth”) ([1]; five day results) was 50 µg/mL, the “lowest level … in no growth” value ([1]; two day results) was 25 µg/mL and the “lowest level … in no growth” value ([2]; five day results) was “NI”. For the same substance, the “lowest level … in no growth” value ([2]; two day results) was “NI”, the “lowest level … in no growth” value ([3]; five day results) was “NI” and the “lowest level … in no growth” value ([3]; two day results) was “NI”. For the same substance, the “lowest level … in no growth” value ([4]; five day results) was “NI”, the “lowest level … in no growth” value ([4]; two day results) was “NI” and the “lowest level … in no growth” value ([5]; five day results) was “NI”. The “lowest level … in no growth” value ([5]; two day results, 2x assays) was 50 µg/mL, the “lowest level … in no growth” value ([6]; five day results) was “NI” and the “lowest level … in no growth” value ([6]; two day results) was “NI”. For the same substance, the “lowest level … in no growth” value ([7]; five day results) was “NI”, the “lowest level … in no growth” value ([7]; two day results) was “NI” and the “lowest level … in no growth” value ([8]; five day results) was “NI”. The “lowest level … in no growth” value ([8]; two day results) was “NI”, the “lowest level … in no growth” value ([9]; five day results) was “NI” and the “lowest level … in no growth” value ([9]; two day results) was “p at 50”. For the same substance, the “lowest level … in no growth” value ([10]; five day results) was “NI”, the “lowest level … in no growth” value ([10]; two day results) was “NI” and the “lowest level … in no growth” value [11] was “NI”. The “lowest level … in no growth” value ([12]; five day results) was “NI”, the “lowest level … in no growth” value ([12]; two day results) was “NI” and the “lowest level … in no growth” value ([13]; five day results) was “NI”. The “lowest level … in no growth” value ([13]; two day results) was “NI”, the “lowest level … in no growth” value ([14]; five day results) was “NI” and the “lowest level … in no growth” value ([14]; two day results) was “NI”. For the same substance, the “lowest level … in no growth” value ([15]; five day results) was “NI”, the “lowest level … in no growth” value ([15]; two day results) was “NI” and the “lowest level … in no growth” value ([16]; five day results) was “NI”. The “lowest level … in no growth” value ([16]; two day results) was “NI”, the “lowest level … in no growth” value ([17]; five day results) was “NI” and the “lowest level … in no growth” value ([17]; two day results) was “NI”. The “lowest level … in no growth” value ([18]; five day results) was “NI”, the “lowest level … in no growth” value ([18]; two day results) was 25 µg/mL and the “lowest level … in no growth” value ([19]; five day results) was “p at 50”. For the same substance, the “lowest level … in no growth” value ([19]; two day results) was 25 µg/mL.

For Pseudomycin C′, the “lowest level … in no growth” value ([1]; five day results) was “p at 50”, the “lowest level … in no growth” value ([1]; two day results) was 25 µg/mL and the “lowest level … in no growth” value ([2]; five day results) was “NI”. For the same substance, the “lowest level … in no growth” value ([2]; two day results) was “NI”, the “lowest level … in no growth” value ([3]; five day results) was “NI” and the “lowest level … in no growth” value ([3]; two day results) was “NI”. For the same substance, the “lowest level … in no growth” value ([4]; five day results) was “NI”, the “lowest level … in no growth” value ([4]; two day results) was “NI” and the “lowest level … in no growth” value ([5]; five day results) was “NI”. For the same substance, the “lowest level … in no growth” value ([5]; two day results, 2x assays) was 50 µg/mL, the “lowest level … in no growth” value ([6]; five day results) was “NI” and the “lowest level … in no growth” value ([6]; two day results) was “NI”. The “lowest level … in no growth” value ([7]; five day results) was “NI”, the “lowest level … in no growth” value ([7]; two day results) was “NI” and the “lowest level … in no growth” value ([8]; five day results) was “NI”. The “lowest level … in no growth” value ([8]; two day results) was “NI”, the “lowest level … in no growth” value ([9]; five day results) was “NI” and the “lowest level … in no growth” value ([9]; two day results) was “NI”. The “lowest level … in no growth” value ([10]; five day results) was “NI”, the “lowest level … in no growth” value ([10]; two day results) was “NI” and the “lowest level … in no growth” value [11] was “NI”. The “lowest level … in no growth” value ([12]; five day results) was “NI”, the “lowest level … in no growth” value ([12]; two day results) was “NI” and the “lowest level … in no growth” value ([13]; five day results) was “NI”. For the same substance, the “lowest level … in no growth” value ([13]; two day results) was “NI”, the “lowest level … in no growth” value ([14]; five day results) was “NI” and the “lowest level … in no growth” value ([14]; two day results) was “NI”. The “lowest level … in no growth” value ([15]; five day results) was “p at 50”, the “lowest level … in no growth” value ([15]; two day results) was 50 µg/mL and the “lowest level … in no growth” value ([16]; five day results) was “NI”. For the same substance, the “lowest level … in no growth” value ([16]; two day results) was “NI”, the “lowest level … in no growth” value ([17]; five day results) was “NI” and the “lowest level … in no growth” value ([17]; two day results) was “NI”. The “lowest level … in no growth” value ([18]; five day results) was “NI”, the “lowest level … in no growth” value ([18]; two day results) was 6.25 µg/mL and the “lowest level … in no growth” value ([19]; five day results) was “p at 50”. The “lowest level … in no growth” value ([19]; two day results) was “p at 50”.
